Source: patent publication US10781182B2, “Compounds, process for obtaining the compounds, pharmaceutical composition, use of the compounds and method for treating psychiatric disorders and/or sleep disorders” (ACHÉ LABORATÓRIOS FARMACÊUTICOS S.A., priority 2016, dated 2020)
≈ marks a conversion by molar mass, not a printed value. Where two headings read alike, the source gives them in different places.

Assays:
[1] = system: mouse hepatocytes (CD-1 males); assay: Intrinsic clearance in cryopreserved mouse hepatocytes; type: in vitro ADME
Procedure: (§1) Cryopreserved hepatocytes from humans, rats (Sprague-Dawley males) and from mice (CD-1 males) were used for incubation at different times (0, 0.5, 1, 1.5, 2 hours) at 37° C. followed by HPLC-MS/MS detection. The aim was to verify the clearance time of the test substance on hepatocytes. The experiment was performed on a 96-well plate and the cryopreserved hepatocytes were thawed and resuspended in Krebs-Heinslet buffer(pH 7.3). The reaction was started by adding each test compound to each cell suspension and performing the incubation at the times indicated above. The reaction was quenched with addition of acetonitrile in the wells and detection by HPLC-MS/MS (mass spectrometry). MS/MS is performed by combining two mass detectors into a single instrument.

[2] = oral, estimated, from literature; cited from earlier work
[3] = Water solubility (shake-flask, PBS pH 7.4); type: physicochemical; settings: aqueous buffer, thermodynamic from solid
Procedure: In addition, chromatographic purity (%) was defined as the calculation of the main peak area relative to the calculation of the peak area integrate of the standard HPLC calibration chromatogram. A standard calibration chromatogram was then generated for each compound tested along with a UV/VIS spectrum with maximal labeled absorbance. The shake-flash technique was used with constant stirring during incubation to keep a uniform medium for 24 hours in PBS at pH 7.4.

[4] = target: CYP1A2 (Homo sapiens (Human), UniProt P05177); assay: CYP inhibition, fluorogenic substrate; type: in vitro ADME
Source text: (§2) The CYP inhibition test used fluorogenic substrates specific to each CYP to check for inhibition thereof by detection of the expected metabolite using a fluorimetric method. Recombinant CYPs (CYP2B6, CYP2C8, […], CYP2C19, CYP2D6, CYP3A4) from specific humans for each cytochrome family, subfamily and polypeptide were used. The following were used as substrates: CEC (3-Cyano-7-Ethoxycoumarin) which forms as metabolite CHC (3-Cyano-7-Hydroxycoumarin); EFC (7-Ethoxy-4-trifluoromethyl coumarin), forming the metabolite HFC (7-Hydroxytri fluoromethylcoumarin); DBF (Dibenzylfluorescein) and its respective fluorescein metabolite; MFC (7-Methoxy-4-trifluoromethylcoumarin) which forms the metabolite HFC (7-Hydroxytrifluoromethylcoumarin); BFC (7-Benzyloxy-Trifluoromethylcoumarin) and its metabolite HFC; and BzRes (benzyloxyresorufin) to form resofurine. The detection of the metabolite was done with a fluorimetric method: analytical technique to identify and characterize the amount of substance by excitation using a beam of ultraviolet light and measurement of the emitted fluorescence. For detection, a 96-well plate was used. Each sample was tested in two wells (n=2) as standard condition. At least 04 wells were separated for vehicle (control). Compounds were tested at a concentration […], standard for this assay. They were preincubated with a NADPH generator system in a phosphate buffer (pH 7.4) for 5 minutes at 37° C. The reaction was started by adding the specific CYP enzymes, substrate and bovine serum albumin (BSA<0.4 mg/ml). Incubations were performed between 20-50 minutes at 37° C. according to the specific parameter of each fluorogenic substrate, for the evaluated component. Fluorescence at each well was detected before and after the incubation period.

[5] = system: human hepatocytes; assay: Intrinsic clearance in cryopreserved human hepatocytes; type: in vitro ADME
Procedure: as §1

[6] = system: rat hepatocytes (Sprague-Dawley males); assay: Intrinsic clearance in cryopreserved rat hepatocytes; type: in vitro ADME
Procedure: as §1

[7] = Pharmacokinetics (PK) in mouse, I.V. and oral; type: in vivo, CD-1 mice
Procedure: PK tests were performed with CD-1 mice, using 4 animals per molecule tested, 2 animals for pharmacokinetic analysis by intravenous (IV) administration and 2 animals for oral administration. The treatment was carried out in a single dose: I.V. group with dose of 1 mg/kg and Oral group with dose of 10 mg/kg. […] Blood collection was performed after euthanasia at 08 defined time points and at 24 hours post-dose. The pharmacokinetic analysis parameters detected for Group IV were: half-life (t½), drug concentration at time zero (C0), last measurable plasma concentration (AUClast), area under the plasma concentration curve extrapolation percentage (AUC % ext), area under the plasma concentration curve extrapolation to infinity (AUCinf), volume of distribution (Vz), steady state volume of distribution (Vss), clearance (CL) and mean residence time (MRT). The parameters evaluated for the Oral group were: bioavailability (F %), maximum concentration reached (Cmax), time to reach maximum plasma concentration (Tmax), last measurable plasma concentration (AUClast), area under the plasma concentration curve extrapolation percentage (AUC % ext), area under the plasma concentration curve extrapolation to infinity (AUCinf), area under the plasma concentration curve extrapolation to infinity versus dose (AUCinf/Dose), half-Life (t½), and mean residence time (MRT).

[8] = target: CYP2B6 (Homo sapiens (Human), UniProt P20813); assay: CYP inhibition, fluorogenic substrate; type: in vitro ADME; design: dose or concentration left out as unconfirmed; settings: recombinant CYP2B6, pH 7.4
Source text: as §2

[9] = target: CYP2D6 (Homo sapiens (Human), UniProt P10635); assay: CYP inhibition, fluorogenic substrate; type: in vitro ADME; design: dose or concentration left out as unconfirmed; settings: recombinant CYP2D6, pH 7.4
Source text: as §2

[10] = target: CYP2C9 (Homo sapiens (Human), UniProt P11712); assay: CYP inhibition, fluorogenic substrate; type: in vitro ADME; design: dose or concentration left out as unconfirmed; settings: recombinant CYP2C9, pH 7.4
Source text: as §2

[11] = target: CYP2C8 (Homo sapiens (Human), UniProt P10632); assay: CYP inhibition, fluorogenic substrate; type: in vitro ADME; design: dose or concentration left out as unconfirmed; settings: recombinant CYP2C8, pH 7.4
Source text: as §2

[12] = target: CYP2C19 (Homo sapiens (Human), UniProt P33261); assay: CYP inhibition, fluorogenic substrate; type: in vitro ADME; design: dose or concentration left out as unconfirmed; settings: recombinant CYP2C19, pH 7.4
Source text: as §2

[13] = CD-1, plasma, intravenous 1 mg/kg

Sequence of CYP2D6 (P10635 whole entry): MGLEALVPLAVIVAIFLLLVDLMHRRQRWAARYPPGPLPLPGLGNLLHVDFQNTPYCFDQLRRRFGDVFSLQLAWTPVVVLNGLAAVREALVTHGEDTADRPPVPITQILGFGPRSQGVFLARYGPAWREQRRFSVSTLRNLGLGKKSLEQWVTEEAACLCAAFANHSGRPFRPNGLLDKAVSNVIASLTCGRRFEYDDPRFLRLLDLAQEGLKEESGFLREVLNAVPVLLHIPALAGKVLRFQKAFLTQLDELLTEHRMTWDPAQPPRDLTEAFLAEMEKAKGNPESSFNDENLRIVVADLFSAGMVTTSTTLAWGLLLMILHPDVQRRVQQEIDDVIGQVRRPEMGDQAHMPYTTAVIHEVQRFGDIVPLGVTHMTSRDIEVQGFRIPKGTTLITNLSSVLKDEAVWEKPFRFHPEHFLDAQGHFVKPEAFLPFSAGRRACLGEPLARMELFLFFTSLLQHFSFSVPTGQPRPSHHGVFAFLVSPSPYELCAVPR
Sequence of CYP2B6 (P20813 whole entry): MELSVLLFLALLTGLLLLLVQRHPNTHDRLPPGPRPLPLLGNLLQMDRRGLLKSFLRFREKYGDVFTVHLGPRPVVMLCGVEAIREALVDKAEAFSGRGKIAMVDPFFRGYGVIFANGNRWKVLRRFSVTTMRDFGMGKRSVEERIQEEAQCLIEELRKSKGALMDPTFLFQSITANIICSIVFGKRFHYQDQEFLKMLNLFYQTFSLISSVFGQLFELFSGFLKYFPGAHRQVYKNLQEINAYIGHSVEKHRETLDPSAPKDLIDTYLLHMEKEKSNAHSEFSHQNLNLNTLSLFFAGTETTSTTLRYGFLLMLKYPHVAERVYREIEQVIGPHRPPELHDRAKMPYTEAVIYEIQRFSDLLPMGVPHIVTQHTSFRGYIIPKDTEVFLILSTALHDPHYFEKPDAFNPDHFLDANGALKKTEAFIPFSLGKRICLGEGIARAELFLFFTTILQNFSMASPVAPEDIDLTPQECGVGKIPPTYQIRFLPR
Sequence of CYP2C19 (P33261 whole entry): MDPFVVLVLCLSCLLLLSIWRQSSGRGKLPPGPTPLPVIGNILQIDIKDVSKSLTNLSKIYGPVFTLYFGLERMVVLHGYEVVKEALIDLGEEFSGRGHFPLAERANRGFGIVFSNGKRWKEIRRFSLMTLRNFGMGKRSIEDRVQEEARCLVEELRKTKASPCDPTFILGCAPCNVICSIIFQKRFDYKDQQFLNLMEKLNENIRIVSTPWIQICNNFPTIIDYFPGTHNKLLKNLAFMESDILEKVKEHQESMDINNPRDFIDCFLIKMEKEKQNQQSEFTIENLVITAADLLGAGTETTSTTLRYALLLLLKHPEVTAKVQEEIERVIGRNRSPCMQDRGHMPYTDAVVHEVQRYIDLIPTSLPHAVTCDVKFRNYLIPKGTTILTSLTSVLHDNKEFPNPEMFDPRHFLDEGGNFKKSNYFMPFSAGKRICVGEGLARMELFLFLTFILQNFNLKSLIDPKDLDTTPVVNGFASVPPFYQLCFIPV
Sequence of CYP2C9 (P11712 whole entry): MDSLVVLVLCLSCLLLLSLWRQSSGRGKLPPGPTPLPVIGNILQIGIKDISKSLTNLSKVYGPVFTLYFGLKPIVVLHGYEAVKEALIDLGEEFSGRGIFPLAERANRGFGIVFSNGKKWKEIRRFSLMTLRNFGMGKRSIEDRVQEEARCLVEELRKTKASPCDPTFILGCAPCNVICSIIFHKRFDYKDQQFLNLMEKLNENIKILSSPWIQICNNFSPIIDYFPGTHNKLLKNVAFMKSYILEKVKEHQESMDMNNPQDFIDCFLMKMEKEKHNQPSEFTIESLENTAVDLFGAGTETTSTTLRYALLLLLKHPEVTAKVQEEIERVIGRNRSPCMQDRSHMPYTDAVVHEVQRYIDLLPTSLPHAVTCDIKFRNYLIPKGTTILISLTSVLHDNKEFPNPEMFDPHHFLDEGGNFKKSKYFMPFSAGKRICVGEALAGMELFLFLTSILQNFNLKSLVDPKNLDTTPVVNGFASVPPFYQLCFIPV
Sequence of CYP1A2 (P05177 whole entry): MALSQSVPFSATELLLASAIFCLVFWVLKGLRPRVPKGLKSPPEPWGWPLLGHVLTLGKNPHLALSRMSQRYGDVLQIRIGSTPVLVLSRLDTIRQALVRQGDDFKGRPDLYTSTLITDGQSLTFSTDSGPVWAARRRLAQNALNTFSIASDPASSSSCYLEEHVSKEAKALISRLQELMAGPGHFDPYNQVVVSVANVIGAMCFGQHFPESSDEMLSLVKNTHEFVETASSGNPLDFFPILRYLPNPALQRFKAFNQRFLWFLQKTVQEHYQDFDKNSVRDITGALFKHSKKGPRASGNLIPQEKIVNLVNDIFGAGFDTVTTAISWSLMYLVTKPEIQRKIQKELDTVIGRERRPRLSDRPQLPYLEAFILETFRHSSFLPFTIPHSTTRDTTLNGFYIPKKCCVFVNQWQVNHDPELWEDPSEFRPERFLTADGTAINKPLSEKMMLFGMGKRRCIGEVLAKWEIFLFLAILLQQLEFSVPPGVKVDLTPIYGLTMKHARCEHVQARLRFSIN
Sequence of CYP2C8 (P10632 whole entry): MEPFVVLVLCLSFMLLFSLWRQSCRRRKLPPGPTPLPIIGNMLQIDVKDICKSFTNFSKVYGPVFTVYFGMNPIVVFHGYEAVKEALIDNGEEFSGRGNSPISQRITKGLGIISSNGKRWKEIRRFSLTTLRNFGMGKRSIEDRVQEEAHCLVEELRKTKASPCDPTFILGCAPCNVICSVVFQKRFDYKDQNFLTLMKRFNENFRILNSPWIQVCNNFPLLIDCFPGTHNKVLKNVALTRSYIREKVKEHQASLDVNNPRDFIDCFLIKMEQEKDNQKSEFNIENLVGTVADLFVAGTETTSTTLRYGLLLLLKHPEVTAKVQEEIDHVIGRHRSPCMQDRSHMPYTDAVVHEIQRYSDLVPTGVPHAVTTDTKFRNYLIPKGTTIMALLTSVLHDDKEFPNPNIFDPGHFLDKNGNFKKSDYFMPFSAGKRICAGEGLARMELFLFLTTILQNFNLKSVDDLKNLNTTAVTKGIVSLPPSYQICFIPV

In the case of `COc1ccc2cccc(CCNC(C)=O)c2c1` [IA2-76, agomelatine, reference compound], the “Intrinsic clearance half-life, Mouse CD-1” value [1] is given as 25 min, the absolute bioavailability [2] is given as 1% and the solubility at 24 h [3] is given as 196 µM (≈ 47.7 µg/mL). For the same molecule, the “affinity to cytochrome isoforms (in words)” value [4] was “high affinity”, the “Intrinsic clearance half-life, Human” value [5] was 48 min and the “Intrinsic clearance half-life, Rat Sprague-Dawley” value [6] was 50 min. For the same molecule, the C0 [7, 13] was 811 ng/mL, the clearance [7, 13] was 116 mL/min/kg and the half-life [7, 13] was 8.94 min. The AUC(0-t) ([7]; CD-1, plasma, oral 10 mg/kg) was 30.3 ng·h/mL, the bioavailability ([7]; CD-1, plasma, oral 10 mg/kg vs intravenous 1 mg/kg, read-out: F (%) bioavailability) was 2.42% and the Cmax ([7]; CD-1, plasma, oral 10 mg/kg, read-out: Cmax) was 21.9 ng/mL. It also gave a Tmax ([7]; CD-1, plasma, oral 10 mg/kg, read-out: Tmax) of 15 min, a Cmax ([7]; oral 10 mg/kg) of 21.9 ng/mL and a Tmax ([7]; oral 10 mg/kg) of 15 min. The “F (%) bioavailability” value ([7]; oral 10 mg/kg vs intravenous 1 mg/kg) was 2.42%, the inhibition [8] was 1.8% and the inhibition [9] was 7.9%. The inhibition [10] was -19.3%, the inhibition [11] was 12.9% and the inhibition [12] was 44.4%.
